Test results published in patent publication US9956222B2, “Quinazoline derivative as tyrosine-kinase inhibitor, preparation method therefor and application thereof” (Xuanzhu Pharma Co., Ltd., priority 2011, dated 2018).

Key:
[1] = target: T1, EGFR: human epidermal growth factor receptor (Homo sapiens, UniProt P00533); assay: In vitro enzyme inhibitory activity (Caliper, FAM labeled peptide); type: biochemical; conditions: EGFR kinase, 28° C., 1 h
T1 construct: purchased Carna
Experimental: (§1) In vitro enzyme inhibitory activity of the present compounds
EGFR: human epidermal growth factor receptor (Carna);
(§2) 1. Formulating the agents to be used in the assay
(§3) (3) Stop buffer (100 mM HEPES, pH 7.5, 0.015% Brij-35, 0.2% Coating Reagent #3, 50 mM EDTA);
(§4) (6) 5-fold compound solutions (using 100% DMSO to formulate 50-fold compound solutions having different concentration gradients, and diluting with water by 10 times to obtain 5-fold compound solutions having different concentration gradients);
(§5) 2. Adding 5 μL of a 5-fold compound solution to a 384-well plate;
(§6) 3. Adding 10 μL of a 2.5-fold kinase solution to incubate for 10 min;
(§7) 4. Then adding 10 μL of a 2.5-fold peptide solution, and reacting at 28° C. for 1 h; and
(§8) 5. Finally, adding 25 μL of stop buffer to terminate the reaction, and reading the data with Caliper.
(§9) 6. Curve fitting to obtain an IC50 value. The calculated inhibition ratio (%)=(the maximum conversion rate−the conversion rate)/(the maximum conversion rate−the minimum conversion rate)×100
(§10) The curve fitting was conducted with the Xlfit software to obtain IC50 values.

[2] = target: T2, HER2: human epidermal growth factor receptor 2 (Homo sapiens, UniProt P04626); assay: as above; type: biochemical; conditions: HER2 kinase, 28° C., 1 h
T2 construct: purchased Carna
T2 sequence (P04626 23-1255): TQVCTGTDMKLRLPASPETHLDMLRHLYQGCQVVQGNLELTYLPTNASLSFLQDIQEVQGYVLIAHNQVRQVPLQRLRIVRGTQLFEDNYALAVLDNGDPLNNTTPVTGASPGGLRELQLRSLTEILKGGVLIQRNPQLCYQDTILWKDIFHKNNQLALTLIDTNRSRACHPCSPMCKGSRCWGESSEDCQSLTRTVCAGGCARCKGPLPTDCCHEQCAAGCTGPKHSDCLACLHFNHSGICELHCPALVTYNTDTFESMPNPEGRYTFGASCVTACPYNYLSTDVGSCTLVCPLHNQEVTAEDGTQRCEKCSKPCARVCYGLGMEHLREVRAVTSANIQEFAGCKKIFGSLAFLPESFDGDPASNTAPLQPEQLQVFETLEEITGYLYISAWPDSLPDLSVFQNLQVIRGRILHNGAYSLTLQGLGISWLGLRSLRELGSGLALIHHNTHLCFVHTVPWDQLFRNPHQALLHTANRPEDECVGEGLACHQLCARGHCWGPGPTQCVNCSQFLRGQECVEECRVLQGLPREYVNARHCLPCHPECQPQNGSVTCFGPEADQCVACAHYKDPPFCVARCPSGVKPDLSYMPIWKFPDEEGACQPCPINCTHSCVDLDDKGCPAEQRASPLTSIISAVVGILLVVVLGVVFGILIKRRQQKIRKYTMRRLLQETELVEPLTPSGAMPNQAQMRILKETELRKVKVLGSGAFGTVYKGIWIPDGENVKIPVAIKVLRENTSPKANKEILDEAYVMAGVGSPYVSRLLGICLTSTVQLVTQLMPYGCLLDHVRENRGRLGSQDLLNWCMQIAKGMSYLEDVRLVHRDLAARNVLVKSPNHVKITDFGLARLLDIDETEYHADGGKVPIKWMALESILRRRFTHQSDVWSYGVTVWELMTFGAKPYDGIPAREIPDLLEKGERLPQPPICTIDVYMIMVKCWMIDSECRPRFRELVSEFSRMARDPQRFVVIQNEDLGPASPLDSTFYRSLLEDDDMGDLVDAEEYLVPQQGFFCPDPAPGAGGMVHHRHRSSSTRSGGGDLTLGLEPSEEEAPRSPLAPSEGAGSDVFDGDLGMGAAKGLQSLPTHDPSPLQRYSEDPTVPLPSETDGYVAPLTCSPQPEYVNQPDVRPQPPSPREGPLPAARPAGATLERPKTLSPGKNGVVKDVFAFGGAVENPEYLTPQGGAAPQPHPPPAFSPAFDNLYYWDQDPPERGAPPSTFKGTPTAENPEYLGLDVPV
Experimental: as §1
HER2: human epidermal growth factor receptor 2 (Carna);
as §2, §3, §4, §5, §6, §7, §8, §9, §10

[3] = target: T3, HER4: human epidermal growth factor receptor 4 (Homo sapiens, UniProt Q15303); assay: as above; type: biochemical; conditions: HER4 kinase, 28° C., 1 h
T3 construct: purchased Carna
T3 sequence (Q15303 26-1308): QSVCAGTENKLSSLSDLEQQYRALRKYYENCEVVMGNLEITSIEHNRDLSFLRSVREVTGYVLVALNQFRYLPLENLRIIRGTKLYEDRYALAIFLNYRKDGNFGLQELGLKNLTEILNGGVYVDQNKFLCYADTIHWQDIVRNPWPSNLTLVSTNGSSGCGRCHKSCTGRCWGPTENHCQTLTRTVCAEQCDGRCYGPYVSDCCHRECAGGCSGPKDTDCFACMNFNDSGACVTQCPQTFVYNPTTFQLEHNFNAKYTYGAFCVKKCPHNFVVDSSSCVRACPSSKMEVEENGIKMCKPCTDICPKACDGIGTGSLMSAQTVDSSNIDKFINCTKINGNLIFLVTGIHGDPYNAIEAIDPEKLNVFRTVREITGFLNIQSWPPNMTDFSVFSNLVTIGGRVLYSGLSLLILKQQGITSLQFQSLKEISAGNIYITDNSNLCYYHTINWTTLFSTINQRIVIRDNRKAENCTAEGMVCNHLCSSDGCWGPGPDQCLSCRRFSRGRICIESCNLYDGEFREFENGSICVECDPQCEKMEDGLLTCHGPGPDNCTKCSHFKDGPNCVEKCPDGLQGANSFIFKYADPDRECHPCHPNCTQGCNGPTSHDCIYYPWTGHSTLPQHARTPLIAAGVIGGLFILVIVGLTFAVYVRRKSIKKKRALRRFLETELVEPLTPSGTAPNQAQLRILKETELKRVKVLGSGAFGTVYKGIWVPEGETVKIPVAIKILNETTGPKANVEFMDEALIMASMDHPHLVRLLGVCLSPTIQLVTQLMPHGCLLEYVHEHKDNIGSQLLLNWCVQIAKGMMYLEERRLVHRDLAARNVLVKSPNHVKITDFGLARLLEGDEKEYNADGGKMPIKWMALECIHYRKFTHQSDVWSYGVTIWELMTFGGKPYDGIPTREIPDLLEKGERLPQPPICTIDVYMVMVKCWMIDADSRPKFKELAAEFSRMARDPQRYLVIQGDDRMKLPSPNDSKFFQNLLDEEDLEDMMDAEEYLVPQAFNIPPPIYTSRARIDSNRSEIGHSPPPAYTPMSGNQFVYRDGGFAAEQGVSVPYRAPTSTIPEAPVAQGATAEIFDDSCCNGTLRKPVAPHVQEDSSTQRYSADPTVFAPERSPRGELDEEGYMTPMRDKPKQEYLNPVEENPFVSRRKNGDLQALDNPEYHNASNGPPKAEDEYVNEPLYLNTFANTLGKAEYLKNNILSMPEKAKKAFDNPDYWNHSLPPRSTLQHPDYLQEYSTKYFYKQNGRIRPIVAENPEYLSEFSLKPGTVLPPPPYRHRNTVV
Experimental: as §1
HER4: human epidermal growth factor receptor 4 (Carna).
as §2, §3, §4, §5, §6, §7, §8, §9, §10

[4] = system: A431 cells (Epidermoid carcinoma); assay: In vitro cellular inhibitory activity, XTT method; type: cell-based; conditions: Homo sapiens, A-431, 72 hours, read-out: in vitro cellular inhibitory activities on A431 IC50
Experimental: (§11) In vitro cellular inhibitory activity of the present compounds
(§12) 1. Formulating the agents and the compounds
(§13) 2) Formulating the XTT working liquor: […]
(§14) The mixture was filtered, packaged separately, and used immediately or within one week. It is necessary for all of the processes to be kept in darkness.
(§15) 3) Formulating test compounds
(§16) Formulating a stock solution of test compound: […]
(§17) The compound powder was dissolved into DMSO until a concentration of 10 mM reached.
(§18) Formulating gradient dilute solutions of test compound: […]
(§19) First, the 10 mM stock solution of test compound was diluted with DMSO in a 4-fold successive gradient for 10 concentrations. 2 μL DMSO-diluted compound was added to 998 μL of the culture medium containing 10% FBS. Therefore, the maximum concentration of the compound is 20 μM, the concentration of DMSO is 0.2%, and there are 10 concentration gradients in total.
(§20) 1) Preparing the cell suspension
(§21) The culture medium was removed from the culture bottle. The cells were rinsed twice with PBS. The pancreatic enzyme was added to digest cells. The digested cells were collected by centrifuge. The cells were resuspended with a culture medium containing 10% fetal calf serum, counted and adjusted to an appropriate concentration (the cell viability should be over 90%). The cell concentration was 5×10^4/ml.
(§22) 2) The cell suspension was added to the 96-well plate, 100 μL per well.
(§23) 3) The plate was placed in the incubator and incubated at 37° C. under 5% CO2 overnight.
(§24) Drugs were added to the cell culture plate. The plate was placed in the incubator and incubated at 37° C. under 5% CO2 for 72 hours.
(§25) 5. Testing the cell viability with the XTT method
(§26) The XTT working solution was added to the plate. The plate was placed in the incubator and incubated at 37° C. under 5% CO2 for 2 hr. Then the plate was placed in a microplate reader to read the absorbance at 450 nm.
(§27) 2) Data were input into GraphPad Prism 5.0 to plot a curve and obtain IC50.

[5] = system: SKOV3 cells (Ovarian carcinoma); assay: In vitro cellular inhibitory activity, XTT method; type: cell-based; conditions: Homo sapiens, SK-OV-3, 72 hours, read-out: in vitro cellular inhibitory activities on SKOV3 IC50
Experimental: as §11, §12, §13, §14, §15, §16, §17, §18, §19, §20, §21, §22, §23, §24, §25, §26, §27

[6] = system: H1975 Cells (NSCLC, non-small cell lung cancer); assay: In vitro cellular inhibitory activity, XTT method; type: cell-based; conditions: Homo sapiens, NCI-H1975, 72 hours, read-out: in vitro cellular inhibitory activities on H1975 IC50
Experimental: as §11, §12, §13, §14, §15, §16, §17, §18, §19, §20, §21, §22, §23, §24, §25, §26, §27

T1 sequence (P00533 25-1210): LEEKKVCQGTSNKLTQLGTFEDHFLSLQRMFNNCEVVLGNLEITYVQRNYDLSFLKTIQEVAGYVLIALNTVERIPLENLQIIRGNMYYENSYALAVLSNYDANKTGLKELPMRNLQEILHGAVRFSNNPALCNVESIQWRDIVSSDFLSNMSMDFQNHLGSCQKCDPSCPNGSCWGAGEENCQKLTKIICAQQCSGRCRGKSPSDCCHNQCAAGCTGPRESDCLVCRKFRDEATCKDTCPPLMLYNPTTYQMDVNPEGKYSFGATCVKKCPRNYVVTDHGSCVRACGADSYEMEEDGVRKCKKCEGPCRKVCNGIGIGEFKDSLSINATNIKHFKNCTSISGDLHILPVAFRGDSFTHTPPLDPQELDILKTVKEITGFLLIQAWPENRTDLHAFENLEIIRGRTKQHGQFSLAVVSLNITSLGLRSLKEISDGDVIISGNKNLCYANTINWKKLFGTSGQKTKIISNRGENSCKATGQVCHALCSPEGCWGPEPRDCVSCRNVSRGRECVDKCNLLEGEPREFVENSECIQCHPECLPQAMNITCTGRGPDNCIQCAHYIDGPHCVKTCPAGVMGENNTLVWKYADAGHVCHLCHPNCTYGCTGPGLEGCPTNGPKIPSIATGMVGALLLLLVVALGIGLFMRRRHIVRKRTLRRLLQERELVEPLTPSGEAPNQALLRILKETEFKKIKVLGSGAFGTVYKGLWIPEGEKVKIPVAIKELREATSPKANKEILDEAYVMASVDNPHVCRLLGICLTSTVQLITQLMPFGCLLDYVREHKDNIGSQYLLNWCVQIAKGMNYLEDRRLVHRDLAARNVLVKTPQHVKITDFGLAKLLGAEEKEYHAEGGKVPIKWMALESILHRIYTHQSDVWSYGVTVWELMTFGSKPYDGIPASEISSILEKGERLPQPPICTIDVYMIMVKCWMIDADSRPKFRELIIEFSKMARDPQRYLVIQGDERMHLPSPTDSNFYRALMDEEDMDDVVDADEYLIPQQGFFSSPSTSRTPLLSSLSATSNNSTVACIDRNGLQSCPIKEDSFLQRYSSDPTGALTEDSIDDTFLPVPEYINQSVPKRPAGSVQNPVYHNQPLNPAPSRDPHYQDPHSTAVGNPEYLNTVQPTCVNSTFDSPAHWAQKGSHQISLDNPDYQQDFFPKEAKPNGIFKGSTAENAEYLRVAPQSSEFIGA

Row | IC50 [1] [nM] | IC50 [2] [nM] | IC50 [3] [nM] | IC50 [4] [nM] | IC50 [5] [nM] | IC50 [6] [nM] | Structure (SMILES)
1 | 0.55 | 14 | 3.1 | – | – | – | COc1cc2ncnc(Nc3ccc(F)c(Cl)c3)c2cc1NC(=O)/C=C/CN1CC2CC2C1 (stereo not drawn) [Compound 1, (E)-4-[3-azabicyclo[3.1.0]hexan-3-yl]-N-[4-(3-chloro-4-fluorophenylamino)-7-methoxyquinazolin-6-yl]-2-butenamide]
2 | 0.65 | 19 | 8.9 | 33.3 | 3220 | 148 | COc1cc2ncnc(Nc3ccc(F)c(Cl)c3)c2cc1NC(=O)/C=C/CN1CC2(CCC2)C1 [Compound 2]
3 | – | – | – | – | 3710 | 134 | COc1cc2ncnc(Nc3ccc(F)c(Cl)c3)c2cc1NC(=O)/C=C/CN1CC2(CCCC2)C1 [Compound 14, (E)-N-[4-(3-chloro-4-fluorophenylamino)-7-methoxyquinazolin-6-yl]-4-(2-azaspiro[3.4]octan-2-yl)-2-butenamide]
4 | – | – | – | – | 3640 | 179 | COc1cc2ncnc(Nc3ccc(F)c(Cl)c3)c2cc1NC(=O)/C=C/CN1CC2(CCCCC2)C1 [Compound 15, (E)-N-[4-(3-chloro-4-fluorophenylamino)-7-methoxyquinazolin-6-yl]-4-(2-azaspiro[3.5]nonan-2-yl)-2-butenamide]
5 | – | – | – | – | 3060 | – | COc1cc2ncnc(Nc3ccc(F)c(Cl)c3)c2cc1NC(=O)/C=C/CN1CCC2(CCC2)CC1 [Compound 17, (E)-N-[4-(3-chloro-4-fluorophenylamino)-7-methoxyquinazolin-6-yl]-4-(7-azaspiro[3.5]nonan-7-yl)-2-butenamide]
6 | – | – | – | – | 3070 | 85.6 | COc1cc2ncnc(Nc3ccc(F)c(Cl)c3)c2cc1NC(=O)/C=C/CN1CCC2(CC2)C1 [Compound 26, (E)-N-[4-(3-chloro-4-fluorophenylamino)-7-methoxyquinazolin-6-yl]-4-(5-azaspiro[2.4]heptan-5-yl)-2-butenamide]
7 | – | – | – | – | 3190 | 91.9 | COc1cc2ncnc(Nc3ccc(F)c(Cl)c3)c2cc1NC(=O)/C=C/CN1CCC2(CCC2)C1 [Compound 27, (E)-N-[4-(3-chloro-4-fluorophenylamino)-7-methoxyquinazolin-6-yl]-4-[6-azaspiro[3.4]octan-6-yl]-2-butenamide]
8 | – | – | – | – | – | 39 | COc1cc2ncnc(Nc3ccc(F)c(Cl)c3)c2cc1NC(=O)/C=C/CN1CCCC2(COC2)C1 [Compound 28, (E)-N-[4-(3-chloro-4-fluorophenylamino)-7-methoxyquinazolin-6-yl]-4-[2-oxa-6-azaspiro[3.5]nonan-6-yl]-2-butenamide]
9 | – | – | – | – | – | 57.1 | COc1cc2ncnc(Nc3ccc(F)c(Cl)c3)c2cc1NC(=O)/C=C/CN1CCC2(CC1)COC2 [Compound 29, (E)-N-[4-(3-chloro-4-fluorophenylamino)-7-methoxyquinazolin-6-yl]-4-(2-oxa-7-azaspiro[3.5]nonan-7-yl)-2-butenamide]
10 | – | – | – | – | 3350 | – | COc1cc2ncnc(Nc3ccc(F)c(Cl)c3)c2cc1NC(=O)/C=C/CN1CCC2(CC1)CC2 [Compound 30, (E)-N-[4-(3-chloro-4-fluorophenylamino)-7-methoxyquinazolin-6-yl]-4-(6-azaspiro[2.5]octan-6-yl)-2-butenamide]
11 | – | – | – | 548 | 3960 | 356 | COc1cc2ncnc(Nc3ccc(F)c(Cl)c3)c2cc1NC(=O)/C=C/CN1CCCCC1 [PF-00299804, reference compound]
